Results taken from the NIST ThermoML archive (doi:10.1016/j.tca.2016.04.023).
“And” between values parts separate entries of the source, which are not always exact repeats. Equal values may be shown once. ± gives the expanded uncertainty stated by the source.

Experiments:
[1] = Crystal; DTA
[2] = Molar enthalpy of transition or fusion; settings: Crystal; DSC

## O.O.O.O.O.O.[Ca+2].[Cl-].[Cl-] [calcium chloride hexahydrate]
[1]
  Normal melting temperature: 28.70 ± 1.1 °C and 28.30 ± 1.1 °C
[2]
  Molar enthalpy of transition or fusion: 9.69 kcal/mol and 9.27 kcal/mol
